Key:
[1] = tested on: GBA1 (β-glucocerebrosidase mutation of N307S) in Gaucher's cell line GM00372; assay: Evaluation of human GBA1 cellular activity (Gaucher's cell line, 6 days treatment); format: cell-based; conditions: GM00372 cells, DMSO-treated cells as negative control, normalized to protein
Method: The Gaucher's cell line with β-glucocerebrosidase mutation of N307S (Coriell Institute, Cat. GM00372) was cultured and expanded using EMEM with 15% FBS. The cell was passaged at least twice and could be used until the 20th passages. The cells were seeded at the density of 1.25×10^4 cells/well in 96-well plate. After cell culturing overnight, 50 μL of cell medium was discarded, and 50 μL of the diluted compound was added (with 0.3% DMSO). The cells were treated with compound for 6 days. On day 6, the cells were washed once with HBSS and incubated in HBSS for 3 h followed by lysing using 30 μL assay buffer (pH5.2 Mcllvaine buffer supplemented with 0.25% sodium taurocholate, 0.5% Triton X-100 and protease cocktail inhibitor) for 5 min at 4° C. on shaker. For GBA enzymatic assay, 15 μL of cell lysate was incubated with 5 μL of 4-MUG (6 mmol/L) for 60 min in 384 well format followed by adding 20 μL of stop solution (1 mmol/L glycine solution adjusted to pH10 using 1 mol/L NaOH). The reaction product of 4-MU was measured (excitation 355 nm, emission 450 nm) on fluorescence spectrophotometer. For the protein quantification, 4 μL of cell lysate was mixed with 36 μL of Pierce BCA reagents for 30 min. The protein was detected according to the manufacturer's instructions. Enzyme activity in cell lysate was normalized to protein concentration. The blank included substrate and assay buffer followed by addition of stop solution. Enzyme activity in cells treated with DMSO was used as a negative control, and results were represented as the percent change in enzyme activity in cells treated with each compound.

[2] = target: T1, recombinant GBA enzyme (human GBA1) (Homo sapiens, UniProt P04062); assay: Evaluation of human GBA1 enzyme inhibitory activity (4-MUG substrate); format: biochemical; conditions: pH5.2, 37° C. 60 min, read-out: GBA1 inhibition IC50
T1 sequence (P04062 40-536): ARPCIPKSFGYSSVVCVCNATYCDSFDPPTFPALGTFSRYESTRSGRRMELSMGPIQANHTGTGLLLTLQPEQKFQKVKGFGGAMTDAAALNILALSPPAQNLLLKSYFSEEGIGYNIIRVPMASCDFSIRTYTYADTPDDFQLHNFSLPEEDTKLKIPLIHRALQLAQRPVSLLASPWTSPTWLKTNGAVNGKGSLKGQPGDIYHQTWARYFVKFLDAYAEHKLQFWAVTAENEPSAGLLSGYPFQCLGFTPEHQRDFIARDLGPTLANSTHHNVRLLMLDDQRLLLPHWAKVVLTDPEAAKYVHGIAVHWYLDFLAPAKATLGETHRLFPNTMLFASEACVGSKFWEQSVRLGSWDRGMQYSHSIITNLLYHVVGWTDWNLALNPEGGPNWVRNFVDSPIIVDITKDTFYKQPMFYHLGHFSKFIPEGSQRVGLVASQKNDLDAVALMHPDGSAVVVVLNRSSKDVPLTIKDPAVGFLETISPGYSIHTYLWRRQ

Human GCS = target: T2, Human GCS (Homo sapiens, UniProt Q16739); assay: Evaluation of human GCS enzyme inhibitory activity (HL60 cell lysate, NBD-C6 ceramide, LC/MSMS); format: biochemical; conditions: 37° C. 90 min, read-out: GCS inhibition IC50
T2 construct: The lysate of HL60 cells were used in this assay; endogenous in cells; host or cells: HL60 cells (lysate supernatant)
T2 sequence (Q16739 1-394): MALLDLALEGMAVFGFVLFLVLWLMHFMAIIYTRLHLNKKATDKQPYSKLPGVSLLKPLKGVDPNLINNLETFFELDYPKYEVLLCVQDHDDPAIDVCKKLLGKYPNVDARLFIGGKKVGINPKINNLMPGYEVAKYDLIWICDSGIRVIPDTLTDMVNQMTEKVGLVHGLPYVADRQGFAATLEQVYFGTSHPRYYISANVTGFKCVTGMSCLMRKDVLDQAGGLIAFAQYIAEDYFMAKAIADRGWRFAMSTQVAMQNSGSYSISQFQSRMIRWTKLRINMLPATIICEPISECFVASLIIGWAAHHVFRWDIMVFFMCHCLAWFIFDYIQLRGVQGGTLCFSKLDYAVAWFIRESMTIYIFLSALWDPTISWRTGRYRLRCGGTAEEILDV

human GBA2 = target: T3, human GBA2 (Homo sapiens, UniProt Q9HCG7); assay: Evaluation of human GBA2 enzyme inhibitory activity (GBA2-rich membrane suspension, 4-MUG); format: biochemical; conditions: GBA2-rich membrane of transfected HEK293T cells, CBE preincubation, read-out: GBA2 inhibition IC50
T3 construct: The complete open reading frames for GBA2 (human NM_020944.2) was amplified from human tissue; made in house; host or cells: HEK293T cells, transiently transfected (pCDNA-3.1); washed membrane pellet used as crude enzyme
T3 sequence (Q9HCG7 1-927): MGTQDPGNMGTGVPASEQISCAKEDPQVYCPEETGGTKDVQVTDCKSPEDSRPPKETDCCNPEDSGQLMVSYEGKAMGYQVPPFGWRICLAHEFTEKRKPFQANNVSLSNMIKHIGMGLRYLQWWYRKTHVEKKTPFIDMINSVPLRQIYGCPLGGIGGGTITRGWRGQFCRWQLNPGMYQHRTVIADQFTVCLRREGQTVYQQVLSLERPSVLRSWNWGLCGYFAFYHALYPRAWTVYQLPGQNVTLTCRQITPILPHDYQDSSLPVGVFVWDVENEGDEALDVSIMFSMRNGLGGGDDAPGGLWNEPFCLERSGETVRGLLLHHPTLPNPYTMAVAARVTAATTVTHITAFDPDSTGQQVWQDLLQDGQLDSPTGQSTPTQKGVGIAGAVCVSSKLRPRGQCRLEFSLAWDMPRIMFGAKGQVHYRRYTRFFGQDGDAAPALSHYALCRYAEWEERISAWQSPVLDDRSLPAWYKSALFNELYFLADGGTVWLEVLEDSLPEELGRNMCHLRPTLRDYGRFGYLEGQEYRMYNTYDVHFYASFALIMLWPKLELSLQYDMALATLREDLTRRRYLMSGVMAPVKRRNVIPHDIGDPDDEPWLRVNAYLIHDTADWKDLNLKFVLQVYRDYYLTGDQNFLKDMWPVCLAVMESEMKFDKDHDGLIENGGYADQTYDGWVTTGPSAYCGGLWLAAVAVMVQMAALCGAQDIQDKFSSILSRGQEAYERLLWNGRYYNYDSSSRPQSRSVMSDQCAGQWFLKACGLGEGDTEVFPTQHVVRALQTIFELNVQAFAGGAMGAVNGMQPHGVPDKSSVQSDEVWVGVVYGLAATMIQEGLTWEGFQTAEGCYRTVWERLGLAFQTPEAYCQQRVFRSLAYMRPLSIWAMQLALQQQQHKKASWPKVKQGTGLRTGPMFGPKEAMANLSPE

Row | SMILES | Percent change in enzyme activity at test concentration 0.37 μM [1] [%] | Percent change in enzyme activity at test concentration 1.1 μM [1] [%] | Percent change in enzyme activity at test concentration 3.3 μM [1] [%] | Percent change in enzyme activity at test concentration 10 μM [1] [%] | Percent change in enzyme activity at test concentration […] [1] [%] | IC50 [2] [nM] | IC50 (Human GCS) [nM] | IC50 (human GBA2) [nM]
1 | Cc1nc(COC[C@@H](F)CCCCN2C[C@H](O)[C@@H](O)[C@H](O)[C@@H](O)C2)c(-c2cc(F)cc(F)c2)o1 (single isomer, unassigned) [Example 100] | 147 | 145 | 163 | 169 | 142 |  |  | 
2 | O[C@H]1[C@H](O)[C@@H](O)CN(CCCC[C@H](F)COCc2csc(-c3ccc(F)cc3)n2)C[C@@H]1O (single isomer, unassigned) [Example 74] | 150 | 185 | 193 | 216 | 96 | 1700 | 30 | > 10000
3 | O[C@H]1[C@H](O)[C@@H](O)CN(CCCC[C@H](F)COCc2ccc(Cl)cc2)C[C@@H]1O (single isomer, unassigned) [Example 107] | 110 | 141 | 157 | 199 | 109 | 1200 | 130 | > 10000
4 | Cc1ccc(COC[C@@H](F)CCCCN2C[C@H](O)[C@@H](O)[C@H](O)[C@@H](O)C2)cc1 (single isomer, unassigned) [Example 135] | 108 | 127 | 153 | 191 | 102 | 3200 | 670 | > 10000
5 | O[C@H]1[C@H](O)[C@@H](O)CN(CCCCCCOCc2csc(-c3cc(F)cc(F)c3)n2)C[C@@H]1O [Example 21, (3S,4R,5R,6S)-1-(6-{[2-(3,5-difluorophenyl)-1,3-thiazol-4-yl]methoxy}hexyl)-3,4,5,6-azepanetetrol] |  |  |  |  |  | 2400 | 60 | > 10000
6 | CCc1ccc(COC[C@@H](F)CCCCN2C[C@H](O)[C@@H](O)[C@H](O)[C@@H](O)C2)cc1 (single isomer, unassigned) [Example 101] | 157 | 209 | 219 | 227 | 157 | 1100 | 170 | > 10000
7 | CCOc1cc(COC[C@@H](F)CCCCN2C[C@H](O)[C@@H](O)[C@H](O)[C@@H](O)C2)ccc1F (single isomer, unassigned) [Example 72] | 214 | 248 | 259 | 284 | 160 | 1200 | 190 | > 10000
8 | O[C@H]1[C@H](O)[C@@H](O)CN(CCCC[C@H](F)COCc2ccc(-c3cc(F)cc(F)c3)nn2)C[C@@H]1O (single isomer, unassigned) [Example 139] | 119 | 154 | 157 | 204 | 115 | 5100 | 220 | > 10000
9 | Cc1ccc(COCCCCCCN2C[C@H](O)[C@@H](O)[C@H](O)[C@@H](O)C2)cc1 [Example 1, (3S,4R,5R,6S)-1-{6-[(4-methylbenzyl)oxy]hexyl}-3,4,5,6-azepanetetrol] | 166 | 200 | 221 | 230 | 155 | 5100 | 2000 | > 10000
